Calls of active or inactive are those of the source.
Legend:
[1] = HIV-1 AD8 envelope cell-cell fusion blockers – cherry-pick, dose response (AID 652062); assay type: functional, cell-based;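 further: luciferase signal from cell-cell fusion driven by HIV-1 clade B AD8 Env; potency is for inhibitors of fusion seen as a drop in luminescence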
[2] = reduction of Shn3 3'UTR-driven luciferase in osteoblasts – cell-based, Clone20 osteoblasts, firefly luciferase, cherry-picked, dose response (AID 624132); assay type: functional;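 further: firefly luciferase luminescence from reporter carrying the Shn3 3'UTR in osteoblasts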
[3] = loss of viability in HepG2 cells – cell-based, CellTiter-Glo, cherry-picked, cytotoxicity control for Shn3 inhibitor project, dose response (AID 624134); assay type: functional
[4] = target: T1, COUP transcription factor 2 (Homo sapiens, UniProt P24468); experiment: Luminescence-based cell-based high throughput dose response assay to identify inhibitors of COUP-TFII (NR2F2).; assay type: functional;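 further: HEK293 cells transiently cotransfected with COUP-TFII expression vector and reporter; luciferase reporter luminescence driven by COUP-TFII from the pX2-168 reporter plasmid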
T1 sequence (P24468 whole entry): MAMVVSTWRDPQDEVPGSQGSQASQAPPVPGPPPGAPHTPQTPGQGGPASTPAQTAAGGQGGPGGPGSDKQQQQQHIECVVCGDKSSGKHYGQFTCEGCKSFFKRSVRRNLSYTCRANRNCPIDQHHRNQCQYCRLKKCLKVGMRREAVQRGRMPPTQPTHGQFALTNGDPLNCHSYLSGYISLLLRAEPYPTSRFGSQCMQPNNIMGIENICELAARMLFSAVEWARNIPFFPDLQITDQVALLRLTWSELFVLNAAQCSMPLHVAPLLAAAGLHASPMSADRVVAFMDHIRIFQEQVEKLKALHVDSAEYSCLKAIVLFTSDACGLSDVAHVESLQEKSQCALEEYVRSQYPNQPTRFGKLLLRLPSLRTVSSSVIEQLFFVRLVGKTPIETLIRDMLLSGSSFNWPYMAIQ

[5] = non-specific 3'UTR reporter inhibition in Clone20-Shn3RL – cell-based, Renilla luciferase, cherry-picked, counter-screen for Shn3 inhibitor project, dose response (AID 624133); assay type: functional
[6] = HEK-293T viability loss after treatment – luminescence, T-cell screen hits, cytotoxicity control for TCR NF-kB inhibitor project, dose response (AID 489026); assay type: functional, cell-based;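 further: cells exposed to compound about 14 hours before the viability readout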
[7] = target: T2, Short transient receptor potential channel 4 (Mus musculus, UniProt Q9QUQ5); experiment: calcium entry via TRPC4 opening agents – cell-based, HEK293 TRPC4/mu-opioid, Fluo-4 calcium, dose response (AID 434937); assay type: functional
T2 sequence (Q9QUQ5 whole entry): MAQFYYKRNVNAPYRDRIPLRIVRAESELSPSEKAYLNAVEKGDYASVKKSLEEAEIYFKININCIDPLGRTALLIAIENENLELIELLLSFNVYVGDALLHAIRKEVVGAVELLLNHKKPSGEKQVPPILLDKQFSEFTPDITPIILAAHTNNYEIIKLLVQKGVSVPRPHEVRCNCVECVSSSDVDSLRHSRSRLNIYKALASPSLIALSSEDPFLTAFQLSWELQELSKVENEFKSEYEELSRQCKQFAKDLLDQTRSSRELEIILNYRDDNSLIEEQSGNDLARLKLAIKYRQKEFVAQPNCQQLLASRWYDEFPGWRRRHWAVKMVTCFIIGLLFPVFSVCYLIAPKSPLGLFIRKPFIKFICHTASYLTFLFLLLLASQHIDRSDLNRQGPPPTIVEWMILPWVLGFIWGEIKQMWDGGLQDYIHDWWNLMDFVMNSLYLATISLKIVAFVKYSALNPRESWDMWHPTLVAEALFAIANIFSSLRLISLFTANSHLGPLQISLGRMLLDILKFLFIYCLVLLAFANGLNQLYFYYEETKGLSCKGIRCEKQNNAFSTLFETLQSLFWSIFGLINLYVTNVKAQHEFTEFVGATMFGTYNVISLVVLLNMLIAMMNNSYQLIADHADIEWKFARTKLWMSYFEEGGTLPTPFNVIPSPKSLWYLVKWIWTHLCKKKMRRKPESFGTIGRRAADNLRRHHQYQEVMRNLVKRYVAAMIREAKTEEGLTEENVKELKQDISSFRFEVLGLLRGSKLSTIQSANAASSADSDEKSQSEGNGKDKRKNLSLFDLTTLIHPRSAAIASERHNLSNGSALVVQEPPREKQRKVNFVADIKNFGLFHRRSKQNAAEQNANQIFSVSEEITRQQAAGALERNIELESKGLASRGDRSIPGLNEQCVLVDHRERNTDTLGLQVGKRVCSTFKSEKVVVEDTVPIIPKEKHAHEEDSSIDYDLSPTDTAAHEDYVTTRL

[8] = viability loss in CEM21 cells – cell-based, CellTiter-Glo luminescence, cherry-picked, cytotoxicity control for viral fusion inhibitor project, dose response (AID 652042); assay type: functional;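 further: potency for signal decrease meaning cytotoxicity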
[9] = Fluorescence-based cell-based high throughput dose response assay for inhibitors of the interaction of nucleotide-binding oligomerization domain containing 2 (NOD2) and the receptor-interacting serine-threonine kinase 2 (RIPK2).; assay type: functional; conditions: Homo sapiens
[10] = luciferase reporter signal suppression in cells – H4 neuroglioma cells, luminescence, dose response (AID 1990); assay type: functional, cell-based
Beta Lactamase = Beta Lactamase (Pseudomonas aeruginosa, UniProt Q932Y6); experiment: BLA reporter interference, concentration series – BLA reporter cells, FRET fluorescence, artefact control for NOD2-RIPK2 interaction inhibitor project, dose response (AID 651552); assay type: functional, cell-based
Sequence of Beta Lactamase (Q932Y6 whole entry): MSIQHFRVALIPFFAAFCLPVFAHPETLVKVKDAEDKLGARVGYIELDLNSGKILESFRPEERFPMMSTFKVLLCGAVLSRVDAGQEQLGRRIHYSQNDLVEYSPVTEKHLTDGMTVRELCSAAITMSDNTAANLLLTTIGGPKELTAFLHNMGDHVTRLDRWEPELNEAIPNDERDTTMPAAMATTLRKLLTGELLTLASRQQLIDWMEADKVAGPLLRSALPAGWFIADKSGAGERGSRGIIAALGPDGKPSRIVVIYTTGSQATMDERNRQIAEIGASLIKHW

[11] = Luminescence Cell-Based Dose Response HTS to Identify Inhibitors of 5'UTR Stem-Loop Driven Prion Protein mRNA Translation in H4 Neuroglioblastoma Cells. [Related pubchem assays: 1827 (Project Summary), 1813 (Primary HTS)]; assay type: functional
[12] = alpha-synuclein stem-loop luciferase translation blockers – H4 neuroglioma cells, luminescence, confirmation (AID 1988); assay type: functional, cell-based
[13] = HGIII-sPLA2 enzyme inhibition potency – biochemical, QFRET, IC50, dose response (AID 743457);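 further: green fluorescence rise as the enzyme cleaves BODIPY PC-A2 in liposomes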
[14] = fluconazole-exposed Candida albicans growth modulators – fluorescence, retest, confirmation (AID 2467); assay type: functional, cell-based
[15] = system: Streptococcus sp. 'group A'; experiment: Streptococcus pyogenes SK(-)GAS viability under kanamycin – luminescence, BacTiterGlo, confirmation, counter-screen for streptokinase expression inhibitor project, dose response (AID 1900); assay type: functional, organism-based
[16] = NIH-3T3 fibroblast cytotoxicity, dose response, cytotoxicity control, cell-based, fluorescence, Alamar Blue, secondary assay (AID 2327); assay type: functional;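 further: NIH-3T3 mouse fibroblasts cultured with fluconazole at 8 µg/mL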
Streptococcus = experiment: GAS UMAA2166 growth inhibition – luminescence, BacTiterGlo, counter-screen for streptokinase expression inhibitor project, dose response (AID 1915); assay type: functional, organism-based;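 further: potency for reduction of bacterial viability or growth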
Paired box protein Pax-8 = Paired box protein Pax-8 (Homo sapiens, UniProt Q06710); experiment: PAX8 transcriptional activity inhibition in RMG-I – RMG-I cells, luciferase, cherry-pick, dose response (AID 687027); assay type: functional, cell-based;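 further: luciferase reporter driven by Pax8 target thyroperoxidase promoter measured by SteadyGlo luminescence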
Sequence of Paired box protein Pax-8 (Q06710 whole entry): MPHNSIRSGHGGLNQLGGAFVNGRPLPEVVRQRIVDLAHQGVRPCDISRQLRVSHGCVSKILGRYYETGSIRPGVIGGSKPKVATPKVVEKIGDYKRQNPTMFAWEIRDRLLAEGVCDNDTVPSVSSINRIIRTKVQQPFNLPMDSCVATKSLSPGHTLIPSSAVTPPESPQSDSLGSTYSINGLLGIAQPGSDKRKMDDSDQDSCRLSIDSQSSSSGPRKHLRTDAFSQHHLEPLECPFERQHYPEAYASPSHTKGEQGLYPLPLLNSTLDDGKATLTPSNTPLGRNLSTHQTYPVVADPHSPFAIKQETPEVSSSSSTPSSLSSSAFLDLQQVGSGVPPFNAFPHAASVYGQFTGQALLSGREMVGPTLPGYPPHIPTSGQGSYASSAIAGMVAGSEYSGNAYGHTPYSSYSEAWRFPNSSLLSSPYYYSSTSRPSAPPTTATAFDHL

[17] = general cell-killing toxicity readout – plate reader, dry powder samples, cytotoxicity control for PAX8 inhibitor project, dose response (AID 743021); assay type: functional, cell-based
[18] = target: T3, Corticotropin-releasing factor receptor 2/Corticotropin-releasing factor-binding protein (Homo sapiens, UniProt P24387+Q13324); experiment: Dose Response confirmation of uHTS hits for small molecule antagonists of the CRF-binding protein and CRF-R2 receptor complex.; assay type: functional; conditions: read-out: IC50_Mean
T3 sequence (Q13324 whole entry): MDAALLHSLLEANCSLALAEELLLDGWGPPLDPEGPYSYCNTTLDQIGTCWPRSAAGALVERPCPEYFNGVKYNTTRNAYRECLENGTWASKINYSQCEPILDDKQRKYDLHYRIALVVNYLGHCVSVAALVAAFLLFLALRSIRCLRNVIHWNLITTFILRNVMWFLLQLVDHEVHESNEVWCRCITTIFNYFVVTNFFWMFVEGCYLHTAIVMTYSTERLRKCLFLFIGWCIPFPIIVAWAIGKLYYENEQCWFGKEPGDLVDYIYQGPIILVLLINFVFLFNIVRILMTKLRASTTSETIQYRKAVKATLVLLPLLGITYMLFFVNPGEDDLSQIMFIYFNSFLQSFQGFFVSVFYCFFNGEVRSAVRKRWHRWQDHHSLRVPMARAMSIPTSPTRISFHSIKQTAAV
T3 sequence (P24387 whole entry): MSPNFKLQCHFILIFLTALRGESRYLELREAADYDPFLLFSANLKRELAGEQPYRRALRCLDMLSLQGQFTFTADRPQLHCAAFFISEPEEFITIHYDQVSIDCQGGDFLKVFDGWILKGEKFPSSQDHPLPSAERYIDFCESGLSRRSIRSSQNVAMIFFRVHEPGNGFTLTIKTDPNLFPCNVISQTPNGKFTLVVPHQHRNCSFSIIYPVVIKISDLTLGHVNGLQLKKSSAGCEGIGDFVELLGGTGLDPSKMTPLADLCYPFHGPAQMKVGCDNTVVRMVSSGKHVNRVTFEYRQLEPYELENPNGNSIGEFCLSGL

[19] = target: T3, Corticotropin-releasing factor receptor 2/Corticotropin-releasing factor-binding protein; experiment: activators of CRF receptor 2 with binding protein – uHTS hits, confirmation (AID 602473); assay type: functional; conditions: read-out: EC50_Mean

For `O=C(Nc1ccncc1)c1ccc(Cl)c(S(=O)(=O)N2CCc3ccccc32)c1`, the AC50 [1] was 2.18 µM (active), the AC50 [2] was 3.19 µM (active) and the AC50 [3] was 6.33 µM (active). The IC50 [4] was 4.67 µM (active), the AC50 [5] was 16.6 µM (active) and the IC50 [6] was 62.9 µM (inactive). The EC50 [7] was 5.31 µM (active) and the AC50 [8] was 51.1 µM (active).
With `COc1ccc(NC(=O)COc2ccc(N(C)S(=O)(=O)c3ccc(Cl)cc3)cc2)cc1OC` the AC50 [2] was 1.35 µM (active), the AC50 [3] was 32.1 µM (active) and the IC50 [4] was 6.67 µM (active). The AC50 [5] was 1.81 µM (active).
With `Cc1cccc(CS(=O)(=O)c2ncc(Cl)c(C(=O)NCc3ccccc3)n2)c1` the IC50 [9] was 2.77 µM (active), the AC50 [2] was 2.94 µM (active) and the EC50 [10] was > 120 µM (not active). For the same compound, the AC50 [3] was 18.8 µM (active), the IC50 (Beta Lactamase) was 12.3 µM (inactive) and the AC50 [5] was 14 µM (active). The EC50 [11] was 26.1 µM (active) and the EC50 [12] was 12 µM (active).
For `S=C(Nc1ccc(Cl)cc1)c1nc2ccccc2[nH]1`, the IC50 [13] was > 122 µM (inactive), the EC50 [14] was > 38 µM (not active) and the EC50 [15] was 1.26 µM (active). The EC50 [16] was 19 µM (active) and the EC50 (Streptococcus) was 3.17 µM (active).
In the case of `Cc1nc(-c2ccc(NC(=O)c3ccco3)cc2)cs1`, the AC50 (Paired box protein Pax-8) is reported as 8.26 µM (active) and the AC50 [17] is reported as 17.1 µM (active).
In the case of `O=C(Cn1ncc2c3ccccc3nc-2c1O)NCC1CCN(Cc2ccccc2F)CC1`, the IC50 [18] is reported as > 47.1 µM (inactive) and the EC50 [19] is reported as > 53 µM (inactive).
For `CCCC(=O)Nc1nnc(Sc2ccc(N(C)C)cc2)s1`, the IC50 [18] was > 47.1 µM (inactive) and the EC50 [19] was > 53 µM (inactive).
